Reference: paper PMC3094488 (European journal of pharmacology, 2011)
Where “and” joins values, the source holds several entries; their conditions need not be identical. Identical values can stand only once.

Columns and labels:
CB1 receptors [1] = target: CB1 receptors (Rattus norvegicus, UniProt P20272); test: CB1 receptor internalization in HEK293 cells stably expressing CB1; type: cell-based; conditions: for plateau / maximal internalization in time course: 100 nM drug, up to 6 hours; for plateau / maximal internalization in time course / maximal internalization (Emax): mean ± S.E.M.; for maximal internalization (Emax) / EC50: 2 hour treatment; for maximal internalization (Emax): at 1 μM; for EC50: read-out: EC50 of CB1 internalization, mean (95% CI)
Chain of CB1 receptors (Rattus norvegicus, UniProt P20272) (P20272 whole entry): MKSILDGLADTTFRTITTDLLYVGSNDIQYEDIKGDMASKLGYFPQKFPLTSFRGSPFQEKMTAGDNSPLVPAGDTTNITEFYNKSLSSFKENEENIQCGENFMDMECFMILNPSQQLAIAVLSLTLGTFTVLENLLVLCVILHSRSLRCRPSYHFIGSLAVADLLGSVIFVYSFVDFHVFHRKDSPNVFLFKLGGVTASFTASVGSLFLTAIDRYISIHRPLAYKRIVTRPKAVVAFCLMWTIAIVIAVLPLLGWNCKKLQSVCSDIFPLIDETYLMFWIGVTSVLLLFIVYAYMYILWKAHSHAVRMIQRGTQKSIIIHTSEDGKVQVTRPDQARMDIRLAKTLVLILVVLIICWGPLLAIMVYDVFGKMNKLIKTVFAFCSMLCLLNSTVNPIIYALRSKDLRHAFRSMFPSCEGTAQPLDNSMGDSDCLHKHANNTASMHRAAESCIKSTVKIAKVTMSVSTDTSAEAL

CB1 receptors [2] = target: T1, CB1 receptors (Mus musculus, UniProt P47746); test: Inhibition of EPSCs; type: cell-based; conditions: for maximal suppression of EPSC, % of baseline: at 1 μM, mean ± S.E.M.; for IC50: read-out: IC50 of EPSC suppression, autaptic hippocampal neurons, mean (95% CI)
T1 sequence (P47746 whole entry): as the sequence (P20272 whole entry) above, with E95D counted along it

CB1 receptors [3] = target: T1, CB1 receptors; conditions: at 1 μM; ref Atwood et al., 2010; cited from earlier work

Row | SMILES | plateau / maximal internalization in time course (CB1 receptors [1]) | maximal internalization (Emax) (CB1 receptors [1]) | EC50 (CB1 receptors [1]) [nM] | maximal suppression of EPSC, % of baseline (CB1 receptors [2]) | IC50 (CB1 receptors [2]) [nM] | maximal decrease of EPSC magnitude (CB1 receptors [3]) [%]
1 | CCCCCCCC(C)(C)c1ccc([C@H]2CCC[C@@H](O)C2)c(O)c1 [CP47,497-C8] | 51.4 ± 2.2 % of basal surface levels | 52.7 ± 4.3 % of basal surface levels | 4.4 | 51.6 ± 8.0 % of baseline and 51.6 % of baseline | 15.4 | –
2 | CCCCCn1cc(C(=O)c2cccc3ccccc23)c2ccccc21 [JWH018] | 50.7 ± 2.6 % of basal surface levels | 45.2 ± 2.0 % of basal surface levels | 10.1 | – | – | 48.0
3 | CCCCn1cc(C(=O)c2cccc3ccccc23)c2ccccc21 [JWH073] | 57.5 ± 3.1 % of basal surface levels | 61.2 ± 2.5 % of basal surface levels | 45.6 | 31.5 ± 4.0 % of baseline | 49.4 | –
4 | CCCCCCCC(C)(C)c1ccc([C@H]2CCC[C@@H](O)C2)c(O)c1 [cis-CP47,497-C8] | 48.4 ± 2.4 % of basal surface levels | 53.8 ± 2.4 % of basal surface levels | 1.9 | – | – | –
5 | CCCCCCCC(C)(C)c1ccc([C@@H]2CCC[C@@H](O)C2)c(O)c1 [trans-CP47,497-C8] | 47.7 ± 3.1 % of basal surface levels | 54.9 ± 3.7 % of basal surface levels | 2.7 | – | – | –
